Measurements reported in patent US5834506A, “Dihydropyrones with improved antiviral activity” (Warner-Lambert Company, priority 1997, dated 1998).
Where two headings read alike, the source gives them in different places.

Key:
[1] = tested on: HIV in lymphocyte derived CEM cells; experiment: Cellular Infection Assay, antiviral efficacy in HIV infected CEM cells (XTT cytopathic procedure); format: cell-based; settings: Human immunodeficiency virus 1, CCRF-CEM, CEM cells; for EC95: protecting the cells 95% relative to untreated control; for EC50: reduces HIV cytopathic effects 50% relative to untreated control, read-out: Antiviral Efficacy EC50
Description: (§1) The compounds of the present invention were evaluated for their in vitro inhibition of HIV-1 protease and for their antiviral efficacy in HIV infected lymphocytes.
(§2) Compounds were tested in lymphocyte derived CEM cells using the XTT cytopathic procedures and were performed at Southern Research Institute (Buckheit, et. al. Antiviral Res. 1993, 21, 247; see also Weislow, et al. J Nat. Cancer Inst., 1989, 81, 577). Compound concentrations were 0.32, 1, 3.2, 10, 32 and 100 uM. The EC50 represents the concentration of agent which reduces HIV cytopathic effects 50% relative to untreated control. EC95 represents the concentration of agent protecting the cells 95% relative to untreated control. Cellular toxicity of the agents are estimated from the TC50 which represents the concentration of the agent which inhibits 50% of the viability of uninfected cells.

HIV-1 protease = biological target: T1, HIV-1 protease (Human immunodeficiency virus type 1 group M subtype B, UniProt P04585); experiment: biochemical; settings: read-out: Inhib of HIV-Protease IC50
T1 construct: Recombinant HIV-1 protease (>96% purity); purchased Bachem Bioscience Inc. (King of Prussia, PA)
Excerpt: The testing of specific 5,6-dihydropyrones as inhibitors of the HIV aspartyl protease, based on the study of the hydrolysis of an undecapeptide enzyme substrate, and the testing of the 5,6-dihydropyrones as inhibitors of viral growth and infectivity, based on the study of infection of H9 cell lines by the HIV-1iiib strain, are also disclosed. […] The methods employed follow the procedures of Tummino, et al. (Archives of Biochemistry and Biophysics 1995, 316, 523).
as §1
Recombinant HIV-1 protease (>96% purity) and HIV protease substrate III (the undecapeptide H-His-Lys-Ala-Arg-Val-Leu-Nph-Glu-Ala-Nle-Ser-NH2,>97% purity) were purchased from Bachem Bioscience Inc. (King of Prussia, PA).
The methods employed follow the procedures of Tummino, et al. (Archives of Biochemistry and Biophysics 1995, 316, 523). […] (total volume, 100 μl). […] The final inhibitor concentrations used were 0 (0.1, 0.2, in some experiments), 0.5, 1, 2, 5, 10, 20, 50, and 100 μM. The solution was mixed, incubated for 5 minutes and the reaction quenched by addition of trifluoracetic acid, 2% final. The (leu-p-nitro-phe) bond of the substrate is cleaved by the enzyme and substrate and products separated by reverse-phase HPLC. Absorbance was measured at 220 nm, peak areas determined, and percentage conversion to product used to calculate percentage control (=[% conversion (+inhibitor)/% conversion (-inhibitor)]×100).

[2] = Cellular toxicity in uninfected CEM cells (TC50); format: cell-based; settings: human, inhibits 50% of the viability of uninfected cells
Description: as §2

[3] = 6.0 nM HIV-1 protease, 40 μM substrate III, 37° C., 5 minutes

| EC50 [1] [nM] | IC50 (HIV-1 protease; [3]) [nM] | IC50 (HIV-1 protease) [nM] | Structure (SMILES) | EC95 [1] [nM] | CC50 [2] [nM] |
| --- | --- | --- | --- | --- | --- |
| 1200 | 1.8 | – | CCNS(=O)(=O)Oc1cc(C(C)(C)C)c(SC2=C(O)CC(CCc3ccc(N)cc3)(CCc3ccc(N)cc3)OC2=O)cc1C [Example 29, Ethyl-sulfamic acid 5-tert-butyl-4-{6,6-bis-[2-(4-amino-phenyl)-ethyl]-4-hydroxy-2-oxo-5,6-dihydro-2H-pyran-3-ylsulfanyl}2-methyl-phenyl ester] | 2900 | 66000 |
| 3400 | 6.8 | – | Cc1cc(SC2=C(O)CC(C)(CCc3ccc(O)cc3)OC2=O)c(C(C)(C)C)cc1OCCO (racemic) [Example 1, 3-[2-tert-Butyl-4-(2-hydroxy-ethoxy)-5-methyl-phenylsulfanyl]-4-hydroxy-6-[2-(4-hydroxy-phenyl)-ethyl]-6-methyl-5,6-dihydro-pyran-2-one, (+/-)] | 18000 | > 100000 |
| < 300 | – | 1 | Cc1cc(SC2=C(O)C[C@@](CCc3ccc(O)cc3)(C(C)C)OC2=O)c(C(C)(C)C)cc1CO [Example 38, (S)-3-(2-tert-Butyl-4-hydroxymethyl-5-methyl-phenylsulfanyl)-4-hydroxy-6-[2-(4-hydroxy-phenyl)-ethyl]-6-isopropyl-5,6-dihydro-pyran-2-one (+)] | 1000 | > 100000 |
| > 55000 | – | 35 | Cc1ccc(C(C)(C)C)c(SC2=C(O)CC(CCc3ccccc3)(c3ccccc3)OC2=O)c1 (racemic) [Ref B, 3-(2-tert-Buty5-methyl-phenylsulfanyl)-4-hydroxy-6-phenethyl-6-phenyl-5,6-dihydro-pyran-2-one, (+/-), reference compound] | – | 55000 |
| 600 | 3.1 | – | Cc1cc(SC2=C(O)CC(CCc3ccc(O)cc3)(C3CCCC3)OC2=O)c(C(C)(C)C)cc1CO (stereo not drawn) [Example 62] | 2500 | > 100000 |
| 2500 | – | 1.6 | Cc1cc(SC2=C(O)CC(C)(CCc3ccc(O)cc3)OC2=O)c(C(C)(C)C)cc1OS(=O)(=O)N(C)C (racemic) [Example 4] | 17000 | 71000 |
| 6300 | 1.3 | – | Cc1cc(SC2=C(O)CC(CCc3ccc(O)cc3)(CCc3ccc(O)cc3)OC2=O)c(C(C)(C)C)cc1CO [Example 14, 3-(2-tert-Buty-4-hydroxymethyl-5-methyl-phenylsulfanyl)-4-hydroxy-6,6-bis-[2-(4-hydroxyphenyl)ethyl]-5,6-dihydro-pyran-2-one] | 24000 | 69000 |
